This note sets out measurements from publication PMC11386433 (Journal of Medicinal Chemistry, 2024).

Test [1] has as its target T1, μOR (SNAP-opioid receptor) (Homo sapiens, UniProt P35372).
T1 construct: host or cells: HEK293T
Description: HTRF saturation binding of fluorescent ligand to SNAP-opioid receptors on HEK293T cells. (Time-resolved FRET reads energy transfer from a long-lived donor to a nearby acceptor.)

Test [2] concerns the target T2, κOR (SNAP-opioid receptor) (Homo sapiens, UniProt P41145).
T2 construct: host or cells: HEK293T
The test is described as above.

Test [3] addresses T3, δOR (Homo sapiens, UniProt P41143). The format is binding. On the set-up: host or cells: CHO-K1. Particulars: labeled with 1 μM.
Test [4] addresses T4, human μOR (Homo sapiens, UniProt P35372).
T4 construct: host or cells: HEK293T (membrane preparation)
In words: biochemical. Format: binding.

The target in test [5] is T3, δOR. Description: cell-based. Format: cell-based. On the set-up: Gαqi gift from The J. David Gladstone Institutes; host or cells: HEK293T. As to conditions: for Emax: HEK-293T, read-out: Emax (agonist properties); for response in agonist mode: IP-One assay.
Test [6] deals with T5, δOR (SNAP-opioid receptor) (Homo sapiens, UniProt P41143).
T5 construct: host or cells: HEK293T
In words: HTRF saturation binding of fluorescent ligand to SNAP-opioid receptors on HEK293T cells. Particulars: HTRF saturation curve, 1 h room temperature, nonspecific binding with naloxone 100 μM.

The target of test [7] is T3, δOR. Description: cell-based. Format: cell-based. On the set-up: host or cells: HEK293T stably expressing EA-β-arrestin-2. As to conditions: for Emax: HEK-293T, read-out: Emax (agonist properties); for response in agonist mode: β-arrestin-2 recruitment.
For test [8], the target named is T6, human κOR (Homo sapiens, UniProt P41145).
T6 construct: host or cells: HEK293T (membrane preparation)
In words: biochemical. The format is binding.

The target in test [9] is T7, wild-type human δOR (Homo sapiens, UniProt P41143).
T7 construct: host or cells: CHO-K1
Description: Single-molecule microscopy of CHO cells transfected with wild-type δOR. The format is cell-based.

[10] abbreviates: HTRF saturation curve, value of high uncertainty, saturation not reached.
Where [11] appears, read: selectivity ratio of HTRF Kd values, high uncertainty.

Structures are written as SMILES. Read-outs that look alike come from different tables or passages of the source. Bounds are passed on as bounds.

T6 sequence (P41145 whole entry): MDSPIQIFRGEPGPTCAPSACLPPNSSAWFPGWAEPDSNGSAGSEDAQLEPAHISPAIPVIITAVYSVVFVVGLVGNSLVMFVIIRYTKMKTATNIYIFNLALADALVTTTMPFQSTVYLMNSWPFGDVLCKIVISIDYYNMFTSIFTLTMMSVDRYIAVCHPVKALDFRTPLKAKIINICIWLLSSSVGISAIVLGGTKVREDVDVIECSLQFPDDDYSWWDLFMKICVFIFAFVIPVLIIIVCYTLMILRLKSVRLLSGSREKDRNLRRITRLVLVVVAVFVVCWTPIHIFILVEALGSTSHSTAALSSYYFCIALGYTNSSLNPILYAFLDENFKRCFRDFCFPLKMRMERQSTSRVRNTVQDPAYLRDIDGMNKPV
T4 sequence (P35372 whole entry): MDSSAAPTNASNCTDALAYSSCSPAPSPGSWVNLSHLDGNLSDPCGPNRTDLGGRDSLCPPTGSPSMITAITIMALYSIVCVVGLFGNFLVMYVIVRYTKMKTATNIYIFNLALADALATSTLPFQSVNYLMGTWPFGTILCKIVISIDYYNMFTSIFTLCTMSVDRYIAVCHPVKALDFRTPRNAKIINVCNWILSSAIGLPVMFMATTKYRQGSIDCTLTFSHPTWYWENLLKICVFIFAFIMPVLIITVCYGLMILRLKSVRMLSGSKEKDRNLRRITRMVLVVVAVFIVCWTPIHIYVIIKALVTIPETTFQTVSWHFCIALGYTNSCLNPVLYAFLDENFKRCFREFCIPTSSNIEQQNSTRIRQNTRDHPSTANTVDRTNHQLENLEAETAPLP
T3 sequence (P41143 whole entry): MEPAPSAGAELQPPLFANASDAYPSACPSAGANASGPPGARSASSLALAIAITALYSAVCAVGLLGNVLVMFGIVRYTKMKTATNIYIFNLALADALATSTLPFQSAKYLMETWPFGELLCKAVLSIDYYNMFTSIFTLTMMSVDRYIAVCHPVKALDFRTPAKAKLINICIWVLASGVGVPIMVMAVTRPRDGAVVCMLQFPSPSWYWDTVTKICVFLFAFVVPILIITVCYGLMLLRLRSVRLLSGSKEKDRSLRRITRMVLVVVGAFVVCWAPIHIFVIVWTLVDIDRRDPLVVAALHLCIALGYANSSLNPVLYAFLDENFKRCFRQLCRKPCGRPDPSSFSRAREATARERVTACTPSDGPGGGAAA
T2 sequence (P41145 whole entry): as the sequence (P41145 whole entry) above
T1 sequence (P35372 whole entry): as the sequence (P35372 whole entry) above
T5 sequence (P41143 whole entry): as the sequence (P41143 whole entry) above
T7 sequence (P41143 whole entry): as above

In the case of `CN1/C(=C/C=C/C=C/C2=[N+](CCCCCC(=O)NCC(=O)NCC(=O)NCC(=O)NCC(=O)Nc3cccc4c5c([nH]c34)[C@@H]3Oc4c(O)ccc6c4[C@@]34CCN(CC3CC3)[C@H](C6)[C@]4(O)C5)c3ccc(S(=O)(=O)[O-])cc3C2(C)C)C(C)(C)c2cc(S(=O)(=O)O)ccc21` [6-Cy5, 1-(1-(((4bS,8R,8aS,14bR)-7-(cyclopropylmethyl)-1,8a-dihydroxy-5,6,7,8,8a,9,14,14b-octahydro-4,8-methanobenzofuro[2,3-a]pyrido[4,3-b]carbazol-13-yl)amino)-1,4,7,10,13-pentaoxo-3,6,9,12-tetraazaoctadecan-18-yl)-3,3-dimethyl-2-((1E,3E)-5-((E)-1,3,3-trimethyl-5-sulfoindolin-2-ylidene)penta-1,3-dien-1-yl)-3H-indol-1-ium-5-sulfonate], the Kd (commonly a measure of binding affinity in units of concentration) is 215 ± 262 nM in test [1] (setting [10]), 226 ± 131 nM in test [2] (setting [10]) and 1.8 ± 0.8 nM in [6]. The results for the μ/δ in test [1] (setting [11]) and in test [4] were 120 and 83, respectively. For the same compound, the κ/δ in test [2] (setting [11]) was 126; in [8], 65. The compound also gave a wash resistance in [3] (after 20 min of medium wash out) of 93 ± 1%. Besides, the Ki (usually the dissociation constant of the complex between target and ligand, obtained from inhibition or displacement) in [4] was 100 nM; in test [8], 78 nM. In addition, the results for the IC50 in test [5] and in test [7] were 54 nM and 33 nM, respectively. For the same compound, the Emax in test [5] and in test [7] was below 5% in each case. In addition, the “response in agonist mode” value in [5] and in test [7] was “did not elicit a response” throughout.

Turning to `CN1/C(=C/C=C/C2=[N+](CCCCCC(=O)NCC(=O)NCC(=O)NCC(=O)NCC(=O)Nc3cccc4c5c([nH]c34)[C@@H]3Oc4c(O)ccc6c4[C@@]34CCN(CC3CC3)[C@H](C6)[C@]4(O)C5)c3ccc(S(=O)(=O)[O-])cc3C2(C)C)C(C)(C)c2cc(S(=O)(=O)O)ccc21` [6-Cy3, 1-(1-(((4bS,8R,8aS,14bR)-7-(cyclopropylmethyl)-1,8a-dihydroxy-5,6,7,8,8a,9,14,14b-octahydro-4,8-methanobenzofuro[2,3-a]pyrido[4,3-b]carbazol-13-yl)amino)-1,4,7,10,13-pentaoxo-3,6,9,12-tetraazaoctadecan-18-yl)-3,3-dimethyl-2-((E)-3-((E)-1,3,3-trimethyl-5-sulfoindolin-2-ylidene)prop-1-en-1-yl)-3H-indol-1-ium-5-sulfonate], the wash resistance in [3] (after 15 min of medium wash out) was 69 ± 1%. In test [4], this compound had a Ki of 370 nM and a μ/δ of 220. Also, in [9], the “time after labeling at which labeled δOR molecules could still be observed diffusing on the plasma membrane” value fell in the range of 2 to 3 h. Moreover, in test [5], the IC50 (commonly the concentration at which inhibition is half-maximal) amounted to 38 nM; the Emax (in general, the size of the effect at its maximum, as opposed to the concentration needed) is below 10%; the “response in agonist mode” value is given as “did not elicit a response”. Moreover, in [7], 47 nM corresponded to half-maximal inhibition (IC50), the Emax is below 5% and the “response in agonist mode” value is “did not elicit a response”. In test [8], the affinity, expressed as Ki, was 330 nM and the κ/δ is 190.
